# Measured values reported in patent publication US12377106B2, “Piperidinylpyrazine-carboxamide compounds for treating and preventing cancer and for degrading BTK” (NURIX THERAPEUTICS, INC., priority 2021, dated 2025).
# “Also recorded” adds a separate entry of the source.
# Test system: BTK
# Assay: Flow cytometry assay for BTK degradation in patient circulating B cells (CD19+CD3-), Phase 1a/1b trial
# Type: in vivo, human
# Procedure: Compound 149 was administered to human patients in a Phase 1a/lb trial investigating safety and tolerability in relapsed and refractory B cell malignancies. Compound 149 was administered as a once daily oral dose first in an accelerated Phase 1a dose escalation starting at 100 mg on Day 1. The first dose levels are explored in a single patient cohort until a grade 2 adverse event has been observed. Thereafter, a traditional 3+3 escalation design is used. This 100 mg starting dose was predicted to provide similar exposure as that observed in non-human primate studies. Once a dose is selected based on all safety, efficacy, pharmacokinetic, and pharmacodynamic data available, the trial will expand in up to five expansion cohorts.
# […] of Bruton's tyrosine kinase were measured by flow cytometry in circulating B cells, including disease cells and provided in FIG. 2. This mean fluorescence intensity directly correlates with the levels of BTK protein observed in a Western blot. […] The patient's BTK levels start at different levels yet, the treatment results in the same level of degradation by Day 15, which is the first measurement after steady state concentration is achieved.
# The 100 mg patient achieved greater than 80% BTK degradation at steady state. All patients at the 200 mg dose level achieved greater than 90% degradation at steady state.
# The data is summarized in Table 3 below which provides the average percent BTK degradation during the last 2 weeks of the first cycle (namely Days 15, 22, and 29). In Cohort 2 (200 mg), well above 90% of BTK degradation was achieved during the steady state.
# Following informed consent, peripheral blood was obtained from all patients for baseline and post Compound 149 therapy assessment of BTK and Ikaros degradation. Patient blood (5 mL) was drawn and immediately fixed in a 5 mL CytoChex™ BCT tube and stored at ambient temperature until assessment via flow cytometry. Blood samples were analyzed within 3 days post sample collection at Precision for Medicine. Additional blood was also drawn into 8 mL BD Vacutainer® CPT™ Cell Preparation Tube with Sodium Citrate. Peripheral blood mononuclear cells (PBMCs) were processed, and viability frozen according to manufacturer's protocol.
# For flow staining, 1 mL blood was treated with 1×BD PharmLyse to facilitate red blood cell lysing. Remaining leukocytes were washed with staining buffer (SB) containing Dulbecco's Phosphate Buffered Saline (DPBS) without Calcium or Magnesium, 1% bovine serum albumin (BSA), 10 mM HEPES, 1 mM EDTA, and 0.01% sodium azide. Cell pellet was stained with fluorophore-conjugated cell surface markers antibodies against CD45, CD3, CD4, CD8, CD14, CD16, CD19 and CD56 prepared in BD Brilliant Stain buffer for 25 minutes at room temperature.
# Following cell surface staining, cells were washed twice with SB and then fixed and permeabilized for one hour at room temperature with eBioscience FoxP3/Transcription Factor Staining Buffer set according to the manufacturer's instructions. Washed cells were then stained with unconjugated BTK antibody made in 1× Permeabilization buffer) for 30 minutes. This was followed by another 30-minute incubation with anti-rabbit Alexa488 secondary antibody also prepared in 1× Permeabilization buffer for BTK detection. After incubation, the cells were washed twice with 1× Permeabilization Buffer and then resuspended in SB. Control samples containing fluorescence minus two markers (FM2) were used for background controls and were stained for all surface markers in the panel excluding BTK.
# The samples were transferred to BD TruCount tubes before acquisition on a BD LSR Fortessa using predetermined BD FACS Diva software (v8.0) application settings. Data analysis was performed using FlowJo software (v10).
# Single lymphocytes were gated for B cells (CD19+CD3−), and the geometric mean fluorescence intensity (MFI) of BTK was calculated. The MFI of B cells in FM2 control was used to quantify background staining. […]
# [1] = average of patients 1, 2, 3, 4, 6 (100 mg and 200 mg)
# [2] = average of patients with data (100 mg and 200 mg)
# [3] = patient 1 (CLL), 100 mg once daily oral
# [4] = patient 2 (CLL), 200 mg once daily oral
# [5] = patient 3 (MCL), 200 mg once daily oral
# [6] = patient 4 (WM), 200 mg once daily oral
# [7] = patient 6 (SLL), 200 mg once daily oral
smiles,measurement,setting,value
NC(=O)c1ncc(N2CCCCC2)nc1Nc1ccc(C2CCN(C[C@@H]3CCN(c4ccc5c(c4)C(=O)N(C4CCC(=O)NC4=O)C5=O)C3)CC2)cc1 (some centres unmarked) [Compound 149],day on which maximum BTK degradation was achieved,"DLBCL patient, 300 mg, BTK MFI in CD19+ B cells, FIG. 8",8 days
same,duration of BTK degradation,"DLBCL patient, 300 mg, FIG. 8",sustained through day 29
same,duration of BTK degradation,"after steady state Cycle 1 Day 15, prior to starting Cycle 2",sustained through Cycle 1 Day 29
same,level of BTK protein in circulating B cells (BTK MFI),"all patients treated, once daily oral regimen",dramatically decreases the level of BTK protein in all patients treated; also recorded: time-dependent decrease of BTK levels
same,"% BTK Degraded, Day 2, Average",[1],56.5%
same,"% BTK Degraded, Day 8, Average",[1],80.4%
same,"% BTK Degraded, Day 22, Average",[2],92.1%
same,"% BTK Degraded, Day 29, Average",[2],90.1%
same,"% BTK Degraded, Day 15, Average","average of patients with data (100 mg and 200 mg), steady state Cycle 1 Day 15",90.1%
same,"BTK Degradation, Day 2",[3],62.8%
same,"BTK Degradation, Day 8",[3],76.9%
same,"BTK Degradation, Day 15",[3],78.0%
same,"BTK Degradation, Day 22",[3],85.5%
same,"BTK Degradation, Day 29",[3],82.0%
same,"BTK Degradation, Day 56",[3],81.4%
same,"BTK Degradation, Avg. Steady State","patient 1 (CLL), 100 mg once daily oral, average of Days 15, 22 and 29",81.8%
same,"BTK Degradation, Day 2",[4],75.1%
same,"BTK Degradation, Day 8",[4],90.5%
same,"BTK Degradation, Day 15",[4],96.1%
same,"BTK Degradation, Day 22",[4],95.4%
same,"BTK Degradation, Day 29",[4],96.1%
same,"BTK Degradation, Day 56",[4],96.0%
same,"BTK Degradation, Avg. Steady State","patient 2 (CLL), 200 mg once daily oral, average of Days 15, 22 and 29",95.9%
same,"BTK Degradation, Day 2",[5],74.0%
same,"BTK Degradation, Day 8",[5],92.7%
same,"BTK Degradation, Day 15",[5],94.6%
same,"BTK Degradation, Day 22",[5],95.4%
same,"BTK Degradation, Day 29",[5],92.3%
same,"BTK Degradation, Day 56",[5],94.7%
same,"BTK Degradation, Avg. Steady State","patient 3 (MCL), 200 mg once daily oral, average of Days 15, 22 and 29",94.1%
same,"BTK Degradation, Day 2",[6],63.6%
same,"BTK Degradation, Day 8",[6],56.8%
same,"BTK Degradation, Day 15",[6],91.5%
same,"BTK Degradation, Avg. Steady State","patient 4 (WM), 200 mg once daily oral, only Day 15 available",91.5%
same,"BTK Degradation, Day 2",[7],6.9%
same,"BTK Degradation, Day 8",[7],85.1%
same,BTK degradation at 24 hours after the initial dose,"patients 1, 2, 3 and 4, 100 mg or 200 mg",62.8-75.1%
same,BTK degradation at steady state,the 100 mg patient,greater than 80%
